How the values were obtained:
COVID-19 (SARS-CoV-2) = assay: Example 2: INOpulse (pulsed iNO) expanded access series in hospitalized patients with hypoxemia due to COVID-19; format: in vivo; conditions: for ratio of oxygen saturation to fraction of inspired oxygen (SpO2/FiO2), median: FiO2 estimated from oxygen flow
[1] = system: cells infected with SARS-CoV; conditions: cited from earlier work
COVID-19 = assay: Example 1: randomized open-label study of pulsed iNO versus standard of care in COVID-19, initial data; format: in vivo; conditions: three COVID-19 patients that completed the regimen
Procedure: This example discloses a randomized, open-label study to assess the efficacy and safety of pulsed iNO compared to standard of care (SOC) in subjects with COVID-19 who are hospitalized and require supplemental oxygen without assisted ventilation. Up to 500 subjects are randomized to receive either (a) iNO 125 mcg/kg IBW/hr for at least 8 hours and up to 24 hours daily for 3 days to 14 days or until resolution or discharge at the discretion of the Investigator, or (b) standard of care. No placebo arm is used. Subjects are followed through Day 28 to assess their clinical status. The primary objective in this study is to verify the efficacy of iNO in subjects with COVID-19. The secondary objective in this study is to evaluate the safety of iNO in subjects with COVID-19.
Outcomes are assessed using an outcome scale assessed 14 days after randomization.
Prior to receiving treatment with iNO, subjects were screened to confirm eligibility. […] Subjects in the iNO group are treated by means of an INOpulse device using a readily available cannula on site.
At day 0 of the study, subjects testing positive for COVID-19 are evaluated for vital signs, blood chemistry, and a chest x-ray or CT scan, and an overall physical exam is performed. Daily vital signs, oxygen measurements (pulse oximetry), methemoglobin levels, and adverse events are assessed through the entire course of treatment. […]

[2] = system: severe acute respiratory syndrome-related coronavirus (SARS-CoV); conditions: cited from earlier work
SARS = conditions: human, in vivo; cited from earlier work
[3] = one subject (CVD19-029), higher dose 250 mcg/kg IBW/hour (approximately 40 ppm)
[4] = patients that completed iNO treatment and were discharged

Compound: [N]=O [iNO, nitric oxide]
- Oxygen Saturation (SpO2), Median (COVID-19 (SARS-CoV-2); Discharge): 95%
- Oxygen Therapy (L/min), Median (COVID-19 (SARS-CoV-2); Discharge, n=20): 0.0 L/min
- 8 Point Ordinal Scale, Median (COVID-19 (SARS-CoV-2); Discharge, scale of Table A): 7
- Oxygen Saturation (SpO2), Median (COVID-19 (SARS-CoV-2); Post-iNO): 95%
- 8 Point Ordinal Scale, Median (COVID-19 (SARS-CoV-2); Post-iNO (first day off iNO), scale of Table A): 4
- Oxygen Therapy (L/min), Median (COVID-19 (SARS-CoV-2); Post-iNO, n=22): 2.0 L/min
- ratio of oxygen saturation to fraction of inspired oxygen (SpO2/FiO2), median (COVID-19 (SARS-CoV-2); baseline (start of iNO)): 229
- Oxygen Saturation (SpO2), Median (COVID-19 (SARS-CoV-2); iNO-End): 95%
- Oxygen Therapy (L/min), Median (COVID-19 (SARS-CoV-2); iNO-End, n=22): 3.3 L/min
- 8 Point Ordinal Scale, Median (COVID-19 (SARS-CoV-2); iNO-End, scale of Table A): 4
- Oxygen Therapy (L/min), Median (COVID-19 (SARS-CoV-2); iNO-Start (baseline), n=24, iNO 125 mcg/kg IBW/hour): 5.0 L/min
- Oxygen Saturation (SpO2), Median (COVID-19 (SARS-CoV-2); iNO-Start (baseline), pulse oximetry): 94%
- 8 Point Ordinal Scale, Median (COVID-19 (SARS-CoV-2); iNO-Start, scale of Table A (1 death to 8 not hospitalized, no limitations)): 4
- patients discharged from the hospital at the time of report (COVID-19 (SARS-CoV-2); of 24 COVID-19 positive patients): 19 patients
- deaths (COVID-19 (SARS-CoV-2); of 24 patients, elderly person with severe comorbidities, iNO for less than 24 hours): one
- ratio of oxygen saturation to fraction of inspired oxygen (SpO2/FiO2), median (COVID-19 (SARS-CoV-2); on completion of iNO): 286
- clinical response (COVID-19 (SARS-CoV-2); [3]): responded well and was discharged home without supplemental oxygen
- tolerability (COVID-19 (SARS-CoV-2); [3]): well tolerated
- Time to Discharge from hospitalization (median, range) (COVID-19 (SARS-CoV-2); [4]): 10 (6-23) Days
- Time to Discharge from start of iNO (median, range) (COVID-19 (SARS-CoV-2); [4]): 6 (3-14) Days
- ratio of oxygen saturation to fraction of inspired oxygen (SpO2/FiO2), median (COVID-19 (SARS-CoV-2); period after iNO): 346
- cellular survival of cells infected with SARS-CoV [1]: improves cellular survival
- need for mechanical ventilation (COVID-19): avoid the need for mechanical ventilation
- oxygenation (COVID-19; iNO 125 mcg/kg IBW/hr): improved oxygenation
- replication of SARS-CoV [2]: inhibits the replication
- arterial oxygenation (SARS): improvements in arterial oxygenation
- chest radiography (SARS): reduction in density of lung infiltrates
- supplemental oxygen and need for ventilatory support (SARS): reduction in supplemental oxygen and need for ventilatory support
- time to hospital discharge (SARS): shorter time to hospital discharge

Reference: patent US20230158064A1 (priority 2020, published 2023)
